Experimental data reported in PubChem BioAssay (NCI).
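48-hour exposure; five concentrations; linearly interpolated endpoints. GI50 marks 50% less growth. TGI: total growth inhibition.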

Tests used:
Assay in all cases: NCI-60 cell line screen, 48 h
786-0 renal = test system: 786-0 renal
A498 renal = test system: A498 renal
A549 NSCLC = test system: A549 NSCLC
ACHN renal = test system: ACHN renal
BT-549 breast = test system: BT-549 breast
CAKI-1 renal = test system: CAKI-1 renal
CCRF-CEM leukemia = test system: CCRF-CEM leukemia
COLO 205 colon = test system: COLO 205 colon
DU-145 prostate = test system: DU-145 prostate
EKVX NSCLC = test system: EKVX NSCLC
HCC-2998 colon = test system: HCC-2998 colon
HCT-116 colon = test system: HCT-116 colon
HCT-15 colon = test system: HCT-15 colon
HL-60(TB) leukemia = test system: HL-60(TB) leukemia
HOP-62 NSCLC = test system: HOP-62 NSCLC
HOP-92 NSCLC = test system: HOP-92 NSCLC
HS 578T breast = test system: HS 578T breast
HT29 colon = test system: HT29 colon
IGROV1 ovarian = test system: IGROV1 ovarian
K-562 leukemia = test system: K-562 leukemia
KM12 colon = test system: KM12 colon
LOX IMVI melanoma = test system: LOX IMVI melanoma
M14 melanoma = test system: M14 melanoma
MALME-3M melanoma = test system: MALME-3M melanoma
MCF7 breast = test system: MCF7 breast
MDA-MB-231 breast = test system: MDA-MB-231 breast
MDA-MB-435 = test system: MDA-MB-435
MOLT-4 leukemia = test system: MOLT-4 leukemia
NCI-H226 lung = test system: NCI-H226 lung
NCI-H23 lung = test system: NCI-H23 lung
NCI-H460 lung = test system: NCI-H460 lung
NCI-H522 lung = test system: NCI-H522 lung
NCI/ADR-RES ovarian = test system: NCI/ADR-RES ovarian
OVCAR-4 ovarian = test system: OVCAR-4 ovarian
OVCAR-5 ovarian = test system: OVCAR-5 ovarian
OVCAR-8 ovarian = test system: OVCAR-8 ovarian
PC-3 prostate = test system: PC-3 prostate
RPMI-8226 leukemia = test system: RPMI-8226 leukemia
RXF 393 renal = test system: RXF 393 renal
SF-268 CNS = test system: SF-268 CNS
SF-295 CNS = test system: SF-295 CNS
SF-539 CNS = test system: SF-539 CNS
SK-MEL-2 melanoma = test system: SK-MEL-2 melanoma
SK-MEL-28 melanoma = test system: SK-MEL-28 melanoma
SK-MEL-5 melanoma = test system: SK-MEL-5 melanoma
SK-OV-3 ovarian = test system: SK-OV-3 ovarian
SN12C renal = test system: SN12C renal
SNB-19 CNS = test system: SNB-19 CNS
SNB-75 CNS = test system: SNB-75 CNS
SR leukemia = test system: SR leukemia
SW-620 colon = test system: SW-620 colon
T-47D breast = test system: T-47D breast
TK-10 renal = test system: TK-10 renal
U251 CNS = test system: U251 CNS
UACC-257 melanoma = test system: UACC-257 melanoma
UACC-62 melanoma = test system: UACC-62 melanoma
UO-31 renal = test system: UO-31 renal

## NS(=O)(=O)c1ccc(Nc2nc(N/N=C/c3ccccn3)nc(Nc3ccccc3)n2)cc1
786-0 renal
  GI50: 1060 nM
  TGI: > 100000 nM
A498 renal
  GI50: 1570 nM
  TGI: 3180 nM
A549 NSCLC
  GI50: 2290 nM
  TGI: 5360 nM
ACHN renal
  GI50: 1960 nM
  TGI: 5470 nM
BT-549 breast
  GI50: 898 nM
  TGI: 6920 nM
CAKI-1 renal
  GI50: 701 nM
  TGI: 4890 nM
CCRF-CEM leukemia
  GI50: 395 nM
  TGI: > 100000 nM
COLO 205 colon
  GI50: 523 nM
  TGI: 1950 nM
DU-145 prostate
  GI50: 855 nM
  TGI: 4900 nM
EKVX NSCLC
  GI50: 1020 nM
  TGI: 5300 nM
HCC-2998 colon
  GI50: 703 nM
  TGI: 3480 nM
HCT-116 colon
  GI50: 395 nM
  TGI: > 100000 nM
HCT-15 colon
  GI50: 1740 nM
  TGI: > 100000 nM
HL-60(TB) leukemia
  GI50: 709 nM
  TGI: > 28900 nM
HOP-62 NSCLC
  GI50: 511 nM
  TGI: 4650 nM
HOP-92 NSCLC
  GI50: 853 nM
  TGI: 4820 nM
HS 578T breast
  GI50: 1670 nM
  TGI: 5970 nM
HT29 colon
  GI50: 1790 nM
  TGI: 5930 nM
IGROV1 ovarian
  GI50: 1020 nM
  TGI: 5110 nM
K-562 leukemia
  GI50: 433 nM
  TGI: > 100000 nM
KM12 colon
  GI50: 2190 nM
  TGI: 5140 nM
LOX IMVI melanoma
  GI50: 657 nM
  TGI: 3480 nM
M14 melanoma
  GI50: 1090 nM
  TGI: 2480 nM
MALME-3M melanoma
  GI50: 1000 nM
  TGI: 2510 nM
MCF7 breast
  GI50: 1300 nM
  TGI: 3240 nM
MDA-MB-231 breast
  GI50: 620 nM
  TGI: 7060 nM
MDA-MB-435
  GI50: 917 nM
  TGI: 2390 nM
MOLT-4 leukemia
  GI50: 495 nM
  TGI: > 39700 nM
NCI-H226 lung
  GI50: 1070 nM
  TGI: 5970 nM
NCI-H23 lung
  GI50: 1510 nM
  TGI: 4430 nM
NCI-H460 lung
  GI50: 2430 nM
  TGI: 6630 nM
NCI-H522 lung
  GI50: 431 nM
  TGI: 3420 nM
NCI/ADR-RES ovarian
  GI50: 3080 nM
  TGI: > 100000 nM
OVCAR-4 ovarian
  GI50: 460 nM
  TGI: 2590 nM
OVCAR-5 ovarian
  GI50: 1720 nM
  TGI: 6610 nM
OVCAR-8 ovarian
  GI50: 498 nM
  TGI: > 100000 nM
PC-3 prostate
  GI50: 665 nM
  TGI: > 100000 nM
RPMI-8226 leukemia
  GI50: 2400 nM
  TGI: 6010 nM
RXF 393 renal
  GI50: 1240 nM
  TGI: 2910 nM
SF-268 CNS
  GI50: 492 nM
  TGI: 4230 nM
SF-295 CNS
  GI50: 1720 nM
  TGI: 7100 nM
SF-539 CNS
  GI50: 683 nM
  TGI: 2530 nM
SK-MEL-2 melanoma
  GI50: 1280 nM
  TGI: 2670 nM
SK-MEL-28 melanoma
  GI50: 809 nM
  TGI: 2300 nM
SK-MEL-5 melanoma
  GI50: 1020 nM
  TGI: 2340 nM
SK-OV-3 ovarian
  GI50: 773 nM
  TGI: 3920 nM
SN12C renal
  GI50: 1290 nM
  TGI: 6130 nM
SNB-19 CNS
  GI50: 947 nM
  TGI: > 27400 nM
SNB-75 CNS
  GI50: 1210 nM
  TGI: 2630 nM
SR leukemia
  GI50: 342 nM
  TGI: > 100000 nM
SW-620 colon
  GI50: 786 nM
  TGI: > 100000 nM
T-47D breast
  GI50: 346 nM
  TGI: 2730 nM
TK-10 renal
  GI50: 1100 nM
  TGI: 5260 nM
U251 CNS
  GI50: 514 nM
  TGI: > 100000 nM
UACC-257 melanoma
  GI50: 2140 nM
  TGI: 5390 nM
UACC-62 melanoma
  GI50: 788 nM
  TGI: 2310 nM
UO-31 renal
  GI50: 1680 nM
  TGI: 4910 nM

## OC1CCN(CCCOc2c3ccccc3nc3c2oc2ccc(Cl)cc23)CC1
786-0 renal
  GI50: 1080 nM
  TGI: 3610 nM
A498 renal
  GI50: 2530 nM
  TGI: 7590 nM
ACHN renal
  GI50: 534 nM
  TGI: 10300 nM
BT-549 breast
  GI50: 3040 nM
  TGI: 10100 nM
CAKI-1 renal
  GI50: 710 nM
  TGI: 2290 nM
COLO 205 colon
  GI50: 755 nM
  TGI: 2210 nM
DU-145 prostate
  GI50: 1060 nM
  TGI: 3570 nM
EKVX NSCLC
  GI50: 2410 nM
  TGI: 13200 nM
HCT-116 colon
  GI50: 414 nM
  TGI: 2360 nM
HOP-62 NSCLC
  GI50: 1740 nM
  TGI: 7570 nM
HOP-92 NSCLC
  GI50: 713 nM
  TGI: 5040 nM
HS 578T breast
  GI50: 2280 nM
  TGI: 13400 nM
IGROV1 ovarian
  GI50: 1250 nM
  TGI: 6280 nM
LOX IMVI melanoma
  GI50: 372 nM
  TGI: 1520 nM
M14 melanoma
  GI50: 1450 nM
  TGI: 3690 nM
MDA-MB-435
  GI50: 1230 nM
  TGI: 2560 nM
NCI-H226 lung
  GI50: 1720 nM
  TGI: 3750 nM
NCI-H460 lung
  GI50: 440 nM
  TGI: 1850 nM
NCI-H522 lung
  GI50: 1110 nM
  TGI: 2730 nM
NCI/ADR-RES ovarian
  GI50: 579 nM
  TGI: 4910 nM
OVCAR-4 ovarian
  GI50: 1230 nM
  TGI: 3660 nM
OVCAR-5 ovarian
  GI50: 1710 nM
  TGI: 6040 nM
OVCAR-8 ovarian
  GI50: 991 nM
  TGI: 11900 nM
PC-3 prostate
  GI50: 1280 nM
  TGI: 4040 nM
RPMI-8226 leukemia
  GI50: 1330 nM
  TGI: 4030 nM
RXF 393 renal
  GI50: 1020 nM
  TGI: 2310 nM
SF-268 CNS
  GI50: 1080 nM
  TGI: 10000 nM
SF-295 CNS
  GI50: 1490 nM
  TGI: 6450 nM
SF-539 CNS
  GI50: 1070 nM
  TGI: 2300 nM
SK-MEL-2 melanoma
  GI50: 2450 nM
  TGI: 5990 nM
SK-MEL-28 melanoma
  GI50: 1640 nM
  TGI: 3100 nM
SK-MEL-5 melanoma
  GI50: 1780 nM
  TGI: 3250 nM
SK-OV-3 ovarian
  GI50: 2420 nM
  TGI: 7070 nM
SN12C renal
  GI50: 883 nM
  TGI: 17200 nM
SNB-19 CNS
  GI50: 1400 nM
  TGI: 18200 nM
SNB-75 CNS
  GI50: 1970 nM
  TGI: 10900 nM
SW-620 colon
  GI50: 444 nM
  TGI: 2090 nM
T-47D breast
  GI50: 3540 nM
  TGI: 20700 nM
TK-10 renal
  GI50: 2750 nM
  TGI: 18300 nM
UACC-257 melanoma
  GI50: 1750 nM
  TGI: 3530 nM
UACC-62 melanoma
  GI50: 1990 nM
  TGI: 4820 nM
UO-31 renal
  GI50: 1230 nM
  TGI: 3290 nM
